Measurements: US6087121A, “Chemiluminescent detection of heme proteins in biological samples” (Mayo Foundation for Medical Education and Research, priority 1999, dated 2000)
Entries after “also recorded” stand apart in the source; their conditions may differ. Where two headings read alike, the source gives them in different places. Blank lines part the entries; values can stand above or below the compound they belong to.

Columns and labels:
[1] = molecular target: T1, MPO (Homo sapiens, UniProt P05164); test: Drug interferences with MPO (PS-1 assay in urine); assay type: biochemical; settings: for inhibition at 0.001 µg/mL: 1 ng/mL
T1 sequence (P05164 49-745): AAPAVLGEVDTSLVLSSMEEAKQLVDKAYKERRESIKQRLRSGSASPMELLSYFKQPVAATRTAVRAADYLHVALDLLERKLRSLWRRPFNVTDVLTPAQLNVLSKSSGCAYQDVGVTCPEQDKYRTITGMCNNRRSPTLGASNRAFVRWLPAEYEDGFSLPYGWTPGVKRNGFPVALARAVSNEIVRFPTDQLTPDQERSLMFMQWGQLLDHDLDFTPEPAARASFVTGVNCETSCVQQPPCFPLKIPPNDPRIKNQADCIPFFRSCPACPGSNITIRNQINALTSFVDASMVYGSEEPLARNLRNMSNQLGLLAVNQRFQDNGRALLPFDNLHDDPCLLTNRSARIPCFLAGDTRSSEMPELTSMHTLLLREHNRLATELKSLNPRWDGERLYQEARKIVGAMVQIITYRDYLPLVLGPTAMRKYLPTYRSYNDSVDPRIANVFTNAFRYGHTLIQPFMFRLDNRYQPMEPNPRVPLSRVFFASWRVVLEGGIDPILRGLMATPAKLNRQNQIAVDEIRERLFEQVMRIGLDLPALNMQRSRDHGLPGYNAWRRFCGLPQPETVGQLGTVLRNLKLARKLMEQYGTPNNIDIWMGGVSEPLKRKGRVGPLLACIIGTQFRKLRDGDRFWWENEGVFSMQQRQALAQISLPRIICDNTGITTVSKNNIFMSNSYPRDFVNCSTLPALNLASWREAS
Experimental: (§1) Urine samples were diluted 1:4 into distilled water to minimize inhibitory effects observed with hyperosmolal urines. Two μL of diluted urine were added to 12×75 mm polystyrene test tube containing 50 μL of the PS-1 solution. The tubes were incubated at 37° C. for 5 minutes. MPO activity was determined by chemiluminescence emission using a Turner TD-20e luminometer maintained at 37° C. Leukocyte counting was performed manually by using a hemacytometer chamber (Kova Glasstic slide, Hycor, Irvine, Calif.) on each urine sample to determine the number of cells/mL.
Several possible interfering substances were added to urine and tested for inhibitory effects. Several common medications were also tested for potential inhibitory effects.

[2] = test system: Hb; test: Interference studies in Hb assay (7-DNH chemiluminescence); assay type: biochemical, human; settings: for Level of Interference (in words): highest conc: ascorbic acid 10, bilirubin 10, Cu++/Mn++ 40, sodium azide 500 μg/mL, uric acid 1 mg/mL; for Level of Interference: level producing a signal equivalent to 3 RBC per high power field, fixed Hb concentration
Experimental: Numerous potential interfering substances, which either enhance or quench the signal generated by cyclic hydrazides, were evaluated. The effects of these potentially interfering substances on light emission was investigated at varying concentrations of the interfering composition. Assays were performed using serial dilutions of the potential interfering compositions in ultrafiltered urine at a fixed concentration of Hb. Comparisons of chemiluminescence emission were made between a reference solution (Hb in ultrafiltered urine) without added interfering compositions and solutions with added interferant.
Generally, the value of 3 RBC per high power field is the normal cutoff point.
Bilirubin and uric acid were examined as a possible negative interfering compositions because of their chemical structure which may quench energy emitted.

[3] = molecular target: T1, MPO; test: Effects of potential interfering substances in WBC (MPO, PS-1) assay; assay type: biochemical; settings: highest tested: uric acid 1 mg/mL, ascorbic acid 100 μg/mL, bilirubin 50 μg/mL, trolox 1 mg/mL
Experimental: as §1
Several possible interfering substances were added to urine and tested for inhibitory effects. Several common medications were also tested for potential inhibitory effects. […] Hb at concentrations of >10 μg/mL and Mb at concentrations >2 μg/mL were detected by the PS-1 substrate as the chemiluminescence emission was above the normal urine background. Samples grossly populated with bacteria caused slight inhibition of the MPO activity. Urine samples may contain many epithelial cells, casts, crystals, and numerous artifacts but none of these appear to interfere with the chemiluminescence emission from MPO.

Compound: Cn1c(=O)c2[nH]cnc2n(C)c1=O [Aminophyllin]
% Inhibition of MPO ([1]; 100 μg/mL): 4%

inhibition at 100 µg/mL ([1]; 100 μg/mL, read-out: % Inhibition of MPO): 75%
Compound: CN(C)CCC=C1c2ccccc2CCc2ccccc21 [Amitriptylene]

Interference (in words) [3]: None
Interference (in words) ([3]; listed as ascorbic acid): did not affect assay performance
Compound: O=C1O[C@H]([C@@H](O)CO)C(O)=C1O [Ascorbic Acid, ascorbic acid]
Level of Interference (in words) [2]: None
Level of Interference (in words) ([2]; listed as ascorbic acid): did not interfere; also recorded: did not have an inhibitory effect on the reaction

Interference (in words) [3]: None
Interference (in words) ([3]; listed as bilirubin): did not affect assay performance
Compound: C=CC1=C(C)/C(=C/c2[nH]c(Cc3[nH]c(/C=C4\NC(=O)C(C)=C4C=C)c(C)c3CCC(=O)O)c(CCC(=O)O)c2C)NC1=O [Bilirubin, bilirubin]
Level of Interference (in words) [2]: None
Level of Interference (in words) ([2]; listed as bilirubin): did not interfere

inhibition at 0.001 µg/mL [1]: 20%
Compound: C[C@]12CC[C@@H]3c4ccc(O)cc4CC[C@H]3[C@@H]1CC[C@@H]2O [Estradiol]

inhibition at 0.001 µg/mL [1]: 15%
Compound: C[C@]12CC[C@@H]3c4ccc(O)cc4CC[C@H]3[C@@H]1C[C@@H](O)[C@@H]2O [Estriol]

Compound: CC(C(=O)O)c1cccc(C(=O)c2ccccc2)c1 (centres unmarked) [Ketoprofyn]
inhibition at 100 mg/day ([1]; read-out: % Inhibition of MPO): 10%

Compound: COc1ccc2cc([C@H](C)C(=O)O)ccc2c1 [Naprosyn]
inhibition at 800 mg/day ([1]; read-out: % Inhibition of MPO): 5%

Compound: C[C@]12C=CC(=O)C=C1CC[C@@H]1[C@@H]2[C@@H](O)C[C@@]2(C)[C@H]1CC[C@]2(O)C(=O)CO [Prednisolone]
inhibition at 100 µg/mL ([1]; read-out: % Inhibition of MPO): 13%

Compound: [N-]=[N+]=[N-] [Sodium Azide, sodium azide]
Level of Interference (in words) [2]: None
Level of Interference (in words) ([2]; listed as sodium azide): did not interfere

Compound: Cn1c(=O)c2[nH]cnc2n(C)c1=O [Theophyllin]
% Inhibition of MPO ([1]; 100 μg/mL): 11%

Interference (in words) [3]: None
Interference (in words) ([3]; listed as trolox): did not affect assay performance
Compound: Cc1c(C)c2c(c(C)c1O)CCC(C)(C(=O)O)O2 (centres unmarked) [Trolox]

Interference (in words) [3]: None
Interference (in words) ([3]; listed as uric acid): did not affect assay performance
Compound: O=c1[nH]c(=O)c2[nH]c(=O)[nH]c2[nH]1 [Uric Acid, uric acid]
Level of Interference (in words) [2]: None
Level of Interference (in words) ([2]; listed as Uric acid): did not interfere

Compound: Catalase
Level of Interference (in words) [2]: only interfere at very high concentrations
Level of Interference [2]: > 7.8 µg/mL

Compound: Eosinophil peroxidase: Eosinophil peroxidase was provided by Dr. Greipp (Mayo Clinic)
Level of Interference (in words) [2]: only interfere at very high concentrations
Level of Interference [2]: > 0.007 µg/mL

Compound: Superoxide dismutase
Level of Interference [2]: > 125 µg/mL
